{"source": "PubChem BioAssay AID2060910", "about": "(Molecular Pharmacology Branch, DTP, NCI, 2025);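 further: spheroids exposed to compound for 7 days before readout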;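 on viability, T/C: 100% = DMSO vehicle control wells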", "system": "242566-281-R-J2-PDC complex spheroid viability", "experiment": "Anticancer human tumor 242566-281-R-J2-PDC patient-derived pancreatic carcinoma cell line growth inhibition [RAS]", "settings": "for IC50: curve of first compound; for viability, T/C: stronger effect = lower value", "summary_of_the_method": "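Tumour cells grown as complex spheroids with HUVEC endothelial cells and mesenchymal stem cells, treated with RAS pathway inhibitor combinations. Each agent spans half-log steps from near clinical Cmax, or 10 microM where Cmax is unknown.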", "data": [{"smiles": "CCC(CC)c1cc(NC2CCC(N)C2)n2nccc2n1", "note": "(configuration not stated) + C=CC(=O)N1CCN(c2nc(OCC3CCCN3C)nc3c(F)c(-c4nc(N)cc(C)c4C(F)(F)F)c(Cl)cc23)C(C)C1", "values": [{"measurement": "IC50", "setting": "second compound 0.00316 µM", "value": 4.59, "unit": "µM"}, {"measurement": "IC50", "setting": "second compound 0.01 µM", "value": 4.42, "unit": "µM"}, {"measurement": "IC50", "setting": "second compound 0.0316 µM", "value": 3.74, "unit": "µM"}, {"measurement": "IC50", "setting": "second compound 0.1 µM", "value": 4.54, "unit": "µM"}, {"measurement": "IC50", "setting": "second compound 0.316 µM", "value": 3.76, "unit": "µM"}, {"measurement": "IC50", "setting": "second compound 1 µM", "value": 4.55, "unit": "µM"}, {"measurement": "viability, T/C", "setting": "second compound 0.00316 µM, first compound 0.0316 µM", "value": 108, "unit": "%"}, {"measurement": "viability, T/C", "setting": "second compound 0.00316 µM, first compound 0.1 µM", "value": 141, "unit": "%"}, {"measurement": "viability, T/C", "setting": "second compound 0.00316 µM, first compound 0.316 µM", "value": 94.3, "unit": "%"}, {"measurement": "viability, T/C", "setting": "second compound 0.00316 µM, first compound 1 µM", "value": 109, "unit": "%"}, {"measurement": "viability, T/C", "setting": "second compound 0.00316 µM, first compound 3.16 µM", "value": 72.6, "unit": "%"}, {"measurement": "viability, T/C", "setting": "second compound 0.00316 µM, first compound 10 µM", "value": 1.71, "unit": "%"}, {"measurement": "viability, T/C", "setting": "second compound 0.01 µM, first compound 0.0316 µM", "value": 121, "unit": "%"}, {"measurement": "viability, T/C", "setting": "second compound 0.01 µM, first compound 0.1 µM", "value": 146, "unit": "%"}, {"measurement": "viability, T/C", "setting": "second compound 0.01 µM, first compound 0.316 µM", "value": 108, "unit": "%"}, {"measurement": "viability, T/C", "setting": "second compound 0.01 µM, first compound 1 µM", "value": 100, "unit": "%"}, {"measurement": "viability, T/C", "setting": "second compound 0.01 µM, first compound 3.16 µM", "value": 72.8, "unit": "%"}, {"measurement": "viability, T/C", "setting": "second compound 0.01 µM, first compound 10 µM", "value": 1.81, "unit": "%"}, {"measurement": "viability, T/C", "setting": "second compound 0.0316 µM, first compound 0.0316 µM", "value": 129, "unit": "%"}, {"measurement": "viability, T/C", "setting": "second compound 0.0316 µM, first compound 0.1 µM", "value": 123, "unit": "%"}, {"measurement": "viability, T/C", "setting": "second compound 0.0316 µM, first compound 0.316 µM", "value": 97.1, "unit": "%"}, {"measurement": "viability, T/C", "setting": "second compound 0.0316 µM, first compound 1 µM", "value": 98, "unit": "%"}, {"measurement": "viability, T/C", "setting": "second compound 0.0316 µM, first compound 3.16 µM", "value": 58.3, "unit": "%"}, {"measurement": "viability, T/C", "setting": "second compound 0.0316 µM, first compound 10 µM", "value": 1.98, "unit": "%"}, {"measurement": "viability, T/C", "setting": "second compound 0.1 µM, first compound 0.0316 µM", "value": 137, "unit": "%"}, {"measurement": "viability, T/C", "setting": "second compound 0.1 µM, first compound 0.1 µM", "value": 129, "unit": "%"}, {"measurement": "viability, T/C", "setting": "second compound 0.1 µM, first compound 0.316 µM", "value": 106, "unit": "%"}, {"measurement": "viability, T/C", "setting": "second compound 0.1 µM, first compound 1 µM", "value": 96.5, "unit": "%"}, {"measurement": "viability, T/C", "setting": "second compound 0.1 µM, first compound 3.16 µM", "value": 82.5, "unit": "%"}, {"measurement": "viability, T/C", "setting": "second compound 0.1 µM, first compound 10 µM", "value": 1.56, "unit": "%"}, {"measurement": "viability, T/C", "setting": "second compound 0.316 µM, first compound 0.0316 µM", "value": 149, "unit": "%"}, {"measurement": "viability, T/C", "setting": "second compound 0.316 µM, first compound 0.1 µM", "value": 124, "unit": "%"}, {"measurement": "viability, T/C", "setting": "second compound 0.316 µM, first compound 0.316 µM", "value": 99.3, "unit": "%"}, {"measurement": "viability, T/C", "setting": "second compound 0.316 µM, first compound 1 µM", "value": 102, "unit": "%"}, {"measurement": "viability, T/C", "setting": "second compound 0.316 µM, first compound 3.16 µM", "value": 62.8, "unit": "%"}, {"measurement": "viability, T/C", "setting": "second compound 0.316 µM, first compound 10 µM", "value": 1.81, "unit": "%"}, {"measurement": "viability, T/C", "setting": "second compound 1 µM, first compound 0.0316 µM", "value": 125, "unit": "%"}, {"measurement": "viability, T/C", "setting": "second compound 1 µM, first compound 0.1 µM", "value": 156, "unit": "%"}, {"measurement": "viability, T/C", "setting": "second compound 1 µM, first compound 0.316 µM", "value": 82.7, "unit": "%"}, {"measurement": "viability, T/C", "setting": "second compound 1 µM, first compound 1 µM", "value": 115, "unit": "%"}, {"measurement": "viability, T/C", "setting": "second compound 1 µM, first compound 3.16 µM", "value": 75, "unit": "%"}, {"measurement": "viability, T/C", "setting": "second compound 1 µM, first compound 10 µM", "value": 1.22, "unit": "%"}]}]}
